pEC50: −log10 of the molar value. ≈ marks a conversion by molar mass, not a printed value. Where “and” joins values, the source holds several entries; their conditions need not be identical. Identical values can stand only once.
Assays:
[1] = Assessment of solubility (HT solubility, pION, UV); assay type: physicochemical; conditions: incubated 16-19 hours, 1.0% DMSO, 100 uM; for solubility kinetic: pH 4.5 buffer (pION system solution), pH 4.5, aqueous buffer, kinetic from dmso stock, read-out: Sol pH 4.5; for solubility kinetic / Sol pH 4.5: pH 4.5 buffer; for Sol pH 7.4: pH 7.4 buffer
Method: Solubility is measured by the following method.
DMSO stock samples at 10 mM conc are prepared. […] The samples are pierced and 100 ul of thawed samples are transferred into the PCR plate for analysis. Each sample is run in duplicate at each pH (pH 4.5 and 7.4). Up to 95 samples can be run in replicate at 2 pH's+1 DMSO (blank).
2. Preparation of pH 4.5 and 7.4 buffers:
pH 4.5 buffer: To 12.5 of system solution (pION) qs to 500 mL of distilled water (pH 2.85-2.90); adjust the pH to pH 4.5 with 0.5 N NaOH.
pH 7.4 buffer: To 12.5 of system solution (pION) qs to 500 mL of distilled water (pH 2.85-2.90); adjust the pH to pH 7.4 with 0.5N NaOH.
Preparation of UV blank plate:
75 ul of buffer (pH 7.4 or pH 4.5) is added to UV plate followed by addition of […] of N-propanol. The solution is mixed and the blank spectrum is read using spectrophotometer.
Preparation of Reference UV plate:
10 ul of each stock sample (including DMSO control) is added to 190 ul of N-propanol to prepare the reference stock plate. Reference stock samples are mixed and 5 ul of each stock sample is added to UV blank plate after it is read spectrophotometrically. The reference stock sample is mixed with blank solution in UV plate and the reference spectrum is read using UV spectrophotometer.
Preparation of sample for incubation:
Solubility at pH 7.4: 6 ul of each stock sample (including DMSO control) is added to the storage plate containing 600 ul of pH 7.4 buffer, mixed and incubated for 16-19 hours. The plate is sealed well during the incubation process. The DMSO content in the sample is 1.0%. The concn in deep well plates is 100 uM
6 ul of each stock sample (including DMSO control) is added to the deep well plate containing 600 ul of pH 4.5 buffer, mixed and incubated for 16-19 hours. The plate is sealed well during the incubation process. The DMSO content in the sample is 1.0%. The concn in deep well plates is 100 uM
Preparation of sample UV plate:
At the end of the incubation period, 100 uL of sample from the storage plate is vacuum filtered using a filter plate. This step wets the filters and the filtrate is discarded. Another 200 ul of the sample from the deep well plate is vacuum filtered using the same filter block but a clean filter plate. 75 ul of the filtrate from the filter plate is transferred to a UV sample plate. 75 ul of N-propanol is added to this UV plate. The solution is mixed and the spectrum is read using the UV spectrophotometer.
The spectra collected for blank, reference and sample from 250-498 nm is analyzed using pION software. If the sample precipitates out, the solubility is reported as XX μg/ml. If there is no precipitation and the sample is soluble, solubility is reported as […] (YY being the initial concentration of the compound in the sample).

[2] = target: T1, Recombinant human soluble guanylate cyclase (sGC) (Homo sapiens, UniProt Q02153); assay: Molecular assay: activation of heme-free sGC, cGMP detection (CisBio kit); assay type: biochemical; conditions: 300 pM heme-free sGC, 37° C., 60 minutes, cGMP formation
T1 construct: histidine tag (C); made in house; host or cells: Sf9 insect cells (baculovirus coinfection)
Method: The compounds of the invention may be evaluated in the following molecular assay:
Recombinant human soluble guanylate cyclase (sGC) is purified from Sf9 insect cells coinfected with baculoviruses expressing the alpha 1 or beta 1 subunit of sGC, both with a C-terminal histidine tag. Heme-free sGC is prepared by treating cell lysate with a final concentration of 0.5% Tween 20 prior to purification on a nickel affinity column.
sGC catalyzes the conversion of guanosine-5′-triphosphate (GTP) to cyclic guanosine monophosphate (cGMP). The activity of sGC is measured in vitro using the commercially available CisBio cGMP detection kit (catalog #62GM2PEB) in a 384 well format. In brief, 300 pM heme-free sGC is incubated in reaction buffer (50 mM MOPS pH 6.8, 0.2 N KOH, 50 mM NaCl, 2 mM MgCl2, 0.1% BSA, 1.25 mM IBMX, 0.25 mM TCEP, 50 nM GTP) in the presence or absence of dilutions of test compounds diluted in DMSO (final concentration of 1%) in a volume of 10 microL at 37° C. for 60 minutes. Undiluted reaction products or an 80-fold dilution of reaction products (10 microL of either) prepared in reaction buffer containing 0.2 mM TCEP and 10 mM EDTA is mixed with 5 microL of d2-cGMP plus 5 microL of Eu^3+cryptate-labeled anti-cGMP, each diluted in buffer containing 0.1 M KPO4 pH 7.5, 0.4 M KF, 20 mM EDTA, 0.2% BSA. After a one hour incubation at room temperature in the dark, the mixtures are quantified on an EnVision plate reader (PerkinElmer) according to manufacturer instructions (laser excitation 337 nm, emission 620 and 665 nm). The ratio at each compound concentration is converted to nM cGMP using the linear portion of a calibration curve. Log compound concentration is plotted against combined undiluted and diluted nM cGMP values to determine the EC50 for each curve.
Representative compounds of the present invention were tested for activity in the above assay. Preferred compounds have an IC50<5,000 nM and more preferred compounds have an IC50<100 nM in this assay.

T1 sequence (Q02108 whole entry partner): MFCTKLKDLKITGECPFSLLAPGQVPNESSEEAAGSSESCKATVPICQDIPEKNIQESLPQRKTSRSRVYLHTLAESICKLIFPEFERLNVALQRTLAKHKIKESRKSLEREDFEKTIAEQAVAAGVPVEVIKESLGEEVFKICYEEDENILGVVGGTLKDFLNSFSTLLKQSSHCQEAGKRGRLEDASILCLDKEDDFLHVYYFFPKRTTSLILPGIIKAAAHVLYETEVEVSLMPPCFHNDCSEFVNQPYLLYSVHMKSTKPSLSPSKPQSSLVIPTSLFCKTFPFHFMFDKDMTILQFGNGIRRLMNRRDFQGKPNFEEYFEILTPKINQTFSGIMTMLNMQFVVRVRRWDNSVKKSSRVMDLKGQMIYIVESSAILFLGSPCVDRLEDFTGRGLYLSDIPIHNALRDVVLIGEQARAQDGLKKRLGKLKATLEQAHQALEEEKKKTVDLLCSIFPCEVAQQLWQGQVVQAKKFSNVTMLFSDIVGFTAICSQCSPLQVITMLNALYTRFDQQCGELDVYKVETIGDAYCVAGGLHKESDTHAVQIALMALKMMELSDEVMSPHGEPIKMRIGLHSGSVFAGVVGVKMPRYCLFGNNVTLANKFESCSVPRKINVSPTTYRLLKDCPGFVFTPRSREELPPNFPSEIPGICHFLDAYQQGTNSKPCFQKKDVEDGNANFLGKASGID
T1 sequence (Q02153 whole entry): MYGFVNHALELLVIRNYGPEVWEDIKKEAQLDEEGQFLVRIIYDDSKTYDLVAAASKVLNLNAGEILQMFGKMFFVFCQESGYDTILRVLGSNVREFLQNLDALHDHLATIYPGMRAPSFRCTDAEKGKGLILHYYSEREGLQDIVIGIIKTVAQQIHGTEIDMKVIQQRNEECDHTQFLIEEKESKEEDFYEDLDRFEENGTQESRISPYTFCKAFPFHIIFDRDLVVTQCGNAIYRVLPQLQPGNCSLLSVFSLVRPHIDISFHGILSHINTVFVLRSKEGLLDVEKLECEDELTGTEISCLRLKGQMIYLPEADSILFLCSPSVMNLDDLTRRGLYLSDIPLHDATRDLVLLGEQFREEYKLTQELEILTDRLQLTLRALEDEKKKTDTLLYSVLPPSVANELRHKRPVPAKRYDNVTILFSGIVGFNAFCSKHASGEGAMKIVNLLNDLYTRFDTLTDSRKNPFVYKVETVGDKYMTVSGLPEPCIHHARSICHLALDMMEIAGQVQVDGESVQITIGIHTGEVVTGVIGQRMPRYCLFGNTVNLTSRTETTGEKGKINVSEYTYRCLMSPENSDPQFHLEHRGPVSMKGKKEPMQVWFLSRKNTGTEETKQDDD

Row | SMILES | solubility kinetic [1] [µg/mL] | Sol pH 7.4 [1] | pEC50 [2] | Sol pH 4.5 [1] [μg/mL]
1 | Cc1cccc(-c2cccc(-n3cnc(C(=O)O)c3C)n2)c1OCc1ccc2c(c1)CCN(C1CCOCC1)C2 [Compound 57, 5-methyl-1-[6-[3-methyl-2-[(2-tetrahydropyran-4-yl-3,4-dihydro-1H-isoquinolin-6-yl)methoxy]phenyl]-2-pyridyl]imidazole-4-carboxylic acid] | > 78 | >78 μg/mL | 5.96 | 
2 | Cc1ccc(OCc2ccc3c(c2)CCN(C2CCOCC2)C3)c(-c2cccc(-n3cnc(C(=O)O)c3C)n2)c1 [Compound 58] | > 78 | >78 μg/mL | 5.59 | 
3 | Cc1cccc(-c2cccc(-c3nc(C)c(C(=O)O)s3)n2)c1OCc1ccc2c(c1)CCN(C1CCOCC1)C2 [Compound 59, 4-methyl-2-[6-[3-methyl-2-[(2-tetrahydropyran-4-yl-3,4-dihydro-1H-isoquinolin-6-yl)methoxy]phenyl]-2-pyridyl]thiazole-5-carboxylic acid] | > 110 | >110 μg/mL | 5.38 | 
4 | Cc1ccc(OCc2cc3c(cc2C)CN(C)CC3)c(-c2cccc(-n3ncc(C(=O)O)c3C(F)(F)F)n2)c1 [Compound 62, 1-[6-[2-[(2,7-dimethyl-3,4-dihydro-1H-isoquinolin-6-yl)methoxy]-5-methylphenyl]-2-pyridyl]-5-(trifluoromethyl)pyrazole-4-carboxylic acid] | 2.8 (≈ 5.22 µM) | 1.2 μg/mL | 6.36 | 
5 | Cc1ccc(OCc2ccc3c(c2)CCN(C2CCOCC2)C3)c(-c2cccc(-n3ncc(C(=O)O)c3C)n2)c1 [Compound 65] | > 53 | >53 μg/mL | 6.87 | 
6 | Cc1ccc(OCc2ccc3c(c2)CCN(C2CCOCC2)C3)c(-c2cccc(-c3ncc(C(=O)O)n3C)n2)c1 [Compound 66] | > 53 | >53 μg/mL | 5.74 | 
7 | Cc1cccc(-c2cccc(-c3ncc(C(=O)O)n3C)n2)c1OCc1ccc2c(c1)CCN(C1CCOCC1)C2 [Compound 67] | > 78 | 54.2 μg/mL | 6.63 | 
8 | CCn1cc(CN2CCc3cc(COc4c(C)cccc4-c4cccc(-c5ncc(C(=O)O)n5C)n4)ccc3C2)cn1 [Compound 71] | > 67 | >67 μg/mL | 6.80 | 
9 | Cc1cccc(-c2cccc(-c3ncc(C(=O)O)n3C)n2)c1OCc1ccc2c(c1)CCN(C1CCCOC1)C2 (centres unmarked) [Compound 75] | > 65 | >65 μg/mL | 6.76 | 
10 | Cc1ccc(OCc2ccc3c(c2C)CCN(C)C3)c(-c2cccc(-c3c(C)c(C(=O)O)nn3C)n2)c1 [Compound 78] | 24.1 (≈ 48.5 µM) | 24.2 μg/mL | 6.01 | 
11 | Cc1ccc(OCc2ccc3c(c2)CCN(C2CCOCC2)C3)c(-c2cccc(-c3c(C)c(C(=O)O)nn3C)n2)c1 [Compound 79] | > 80 | >80 μg/mL | 5.92 | 
12 | Cc1ccc(OCc2ccc3c(c2C)CCN(C2CCOCC2)C3)c(-c2cccc(-c3c(C)c(C(=O)O)nn3C)n2)c1 [Compound 80] | > 81 | >81 μg/mL | 6.81 | 
13 | Cc1cccc(-c2cccc(-c3c(C)c(C(=O)O)nn3C)n2)c1OCc1ccc2c(c1)CCN(C1CCOCC1)C2 [Compound 81] | 48.4 (≈ 87.6 µM) | 31.7 μg/mL | 6.73 | 
14 | CCn1nc(C(=O)O)c(C)c1-c1cccc(-c2cccc(C)c2OCc2ccc3c(c2)CCN(C2CCOCC2)C3)n1 [Compound 82] | > 67 | >67 μg/mL | 6.68 | 

These reach a higher pEC50 [2]. Values come first.

Row | solubility kinetic [1] [µg/mL] | Sol pH 7.4 [1] | pEC50 [2] | Sol pH 4.5 [1] [μg/mL] | SMILES
15 | > 66 | >66 μg/mL | 7.00 |  | Cc1cccc(-c2cccc(-c3ncc(C(=O)O)n3C)n2)c1OCc1ccc2c(c1)CCN(C1CCCCCC1)C2 [Compound 76]
16 | > 110 | >110 μg/mL | 7.12 |  | Cn1c(C(=O)O)cnc1-c1cccc(-c2cccc(C(F)(F)F)c2OCc2ccc3c(c2)CCN(C2CCOCC2)C3)n1 [Compound 61]
17 | > 69 | >69 μg/mL | 7.30 |  | Cc1cccc(-c2cccc(-c3c(C)c(C(=O)O)nn3C(C)C)n2)c1OCc1ccc2c(c1)CCN(C1CCOCC1)C2 [Compound 83]
18 | > 67 | >67 μg/mL and >66 μg/mL | 7.33 | >66 | Cc1cccc(-c2cccc(-c3ncc(C(=O)O)n3C)n2)c1OCc1ccc2c(c1)CCN(CC1CCCOC1)C2 (centres unmarked) [Compound 73]
19 | > 66 | >66 μg/mL | 7.43 |  | Cc1ncc(CN2CCc3cc(COc4c(C)cccc4-c4cccc(-c5ncc(C(=O)O)n5C)n4)ccc3C2)s1 [Compound 70]
20 | > 65 | >65 μg/mL | 7.51 |  | Cc1cccc(-c2cccc(-n3cnc(C(=O)O)c3C)n2)c1OCc1ccc2c(c1C)CCN(Cc1ccccn1)C2 [Compound 56]
21 | > 67 | >67 μg/mL | 7.57 |  | Cc1cc(CN2CCc3cc(COc4c(C)cccc4-c4cccc(-c5ncc(C(=O)O)n5C)n4)ccc3C2)no1 [Compound 72]
22 | > 66 | >66 μg/mL and >68 μg/mL | 7.57 | >68 | Cc1cccc(-c2cccc(-c3ncc(C(=O)O)n3C)n2)c1OCc1ccc2c(c1)CCN(C1CCC(F)(F)CC1)C2 [Compound 74]
23 | > 78 | >78 μg/mL | 7.68 |  | Cc1cccc(-c2cccc(-n3ncc(C(=O)O)c3C)n2)c1OCc1ccc2c(c1)CCN(C1CCOCC1)C2 [Compound 64]
24 | > 64 | >64 μg/mL | 7.72 |  | Cc1cccc(-c2cccc(-c3csc(C(=O)O)c3C)n2)c1OCc1ccc2c(c1)CCN(C1CCOCC1)C2 [Compound 60]
25 | > 78 | 54.2 μg/mL | 7.85 |  | CCn1c(C(=O)O)cnc1-c1cccc(-c2cccc(C)c2OCc2ccc3c(c2)CCN(C2CCOCC2)C3)n1 [Compound 63, 3-ethyl-2-[6-[3-methyl-2-[(2-tetrahydropyran-4-yl-3,4-dihydro-1H-isoquinolin-6-yl)methoxy]phenyl]-2-pyridyl]imidazole-4-carboxylic acid]

Source: patent publication US8569339B2, “Soluble guanylate cyclase activators” (Boehringer Ingelheim International GmbH, priority 2011, dated 2013)
